Data reported in patent EP4273147A1, “SUBSTITUTED SPIROLACTAMS, SALTS THEREOF AND THEIR USE AS HERBICIDALLY ACTIVE SUBSTANCES” (Bayer Aktiengesellschaft, priority 2022, dated 2023).

What was measured:
ABUTH [1] = experiment: Herbicidal pre-emergence action (Table A1); type: in vivo, Abutilon theophrasti; details: application rate 1280 g/ha; visual grading after ca. 3 weeks vs untreated controls (100% = plants have died off, 0% = as control plants)
Procedure, shortened: (§1)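 Seeds of monocot and dicot weeds were sown in pots of sandy loam and covered with soil. Each pot held a double sowing: one monocotyledonous plus one dicotyledonous species.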

ECHCG [2] = experiment: Herbicidal pre-emergence action (Table A2); type: in vivo, Echinochloa crus-galli; details: application rate 320 g/ha; visual grading after ca. 3 weeks
Procedure, shortened: as §1

LOLRI [3] = experiment: Herbicidal pre-emergence action (Table A3); type: in vivo, Lolium rigidum; details: application rate 320 g/ha; visual grading after ca. 3 weeks
Procedure, shortened: as §1

MATIN [4] = experiment: Herbicidal pre-emergence action (Table A4); type: in vivo, Matricaria inodora; details: application rate 1280 g/ha; visual grading after ca. 3 weeks
Procedure, shortened: as §1

SETVI [5] = experiment: Herbicidal pre-emergence action (Table A5); type: in vivo, Setaria viridis; details: application rate 1280 g/ha; visual grading after ca. 3 weeks
Procedure, shortened: as §1

STEME = experiment: Herbicidal pre-emergence action (Table A6); type: in vivo, Stellaria media; details: application rate 320 g/ha; visual grading after ca. 3 weeks
Procedure, shortened: as §1

POAAN = experiment: Herbicidal pre-emergence action (Table A7); type: in vivo, Poa annua; details: application rate 320 g/ha; visual grading after ca. 3 weeks
Procedure, shortened: as §1

ALOMY [6] = experiment: Herbicidal pre-emergence action (Table A9); type: in vivo, Alopecurus myosuroides; details: application rate 1280 g/ha; visual grading after ca. 3 weeks
Procedure, shortened: as §1

KCHSC = experiment: Herbicidal pre-emergence action (Table A10); type: in vivo, Kochia scoparia; details: application rate 320 g/ha; visual grading after ca. 3 weeks
Procedure, shortened: as §1

VERPE [7] = experiment: Herbicidal pre-emergence action (Table A11); type: in vivo, Veronica persica; details: application rate 1280 g/ha; visual grading after ca. 3 weeks
Procedure, shortened: as §1

DIGSA [8] = experiment: Herbicidal pre-emergence action (Table A12); type: in vivo, Digitaria sanguinalis; details: application rate 320 g/ha; visual grading after ca. 3 weeks
Procedure, shortened: as §1

ABUTH [9] = experiment: Herbicidal post-emergence action (Table B1); type: in vivo, Abutilon theophrasti; details: application rate 1280 g/ha; treated at one-leaf stage; rated visually after about 3 weeks vs untreated controls (100% = plants have died, 0% = like control plants)
Procedure, shortened: (§2)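 Visual rating of activity versus untreated plants about 3 weeks after treatment: 0% means no difference from controls, 100% means complete kill. Test weeds were raised from seed in sandy loam under controlled greenhouse conditions and sprayed at the one-leaf stage.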

ECHCG [10] = experiment: Herbicidal post-emergence action (Table B3); type: in vivo, Echinochloa crus-galli; details: application rate 1280 g/ha; rated visually after about 3 weeks
Procedure, shortened: as §2

LOLRI [11] = experiment: Herbicidal post-emergence action (Table B5); type: in vivo, Lolium rigidum; details: application rate 1280 g/ha; rated visually after about 3 weeks
Procedure, shortened: as §2

MATIN [12] = experiment: Herbicidal post-emergence action (Table B6); type: in vivo, Matricaria inodora; details: application rate 1280 g/ha; rated visually after about 3 weeks
Procedure, shortened: as §2

SETVI [13] = experiment: Herbicidal post-emergence action (Table B8); type: in vivo, Setaria viridis; details: application rate 1280 g/ha
Procedure, shortened: as §2

ALOMY [14] = experiment: Herbicidal pre-emergence action, section C (Table C2); type: in vivo, Alopecurus myosuroides; details: application rate 320 g/ha; visual grading after ca. 3 weeks
DIGSA [15] = experiment: Herbicidal pre-emergence action, section C (Table C5); type: in vivo, Digitaria sanguinalis; details: application rate 80 g/ha; visual grading after ca. 3 weeks
LOLRI [16] = experiment: Herbicidal pre-emergence action, section C (Table C7); type: in vivo, Lolium rigidum; details: application rate 320 g/ha; visual grading after ca. 3 weeks
MATIN [17] = experiment: Herbicidal pre-emergence action, section C (Table C8); type: in vivo, Matricaria inodora; details: application rate 320 g/ha; visual grading after ca. 3 weeks
SETVI [18] = experiment: Herbicidal pre-emergence action, section C (Table C10); type: in vivo, Setaria viridis; details: application rate 320 g/ha; visual grading after ca. 3 weeks
VERPE [19] = experiment: Herbicidal pre-emergence action, section C (Table C11); type: in vivo, Veronica persica; details: application rate 80 g/ha; visual grading after ca. 3 weeks
VIOTR [20] = experiment: Herbicidal pre-emergence action, section C (Table C12); type: in vivo, Viola tricolor; details: application rate 80 g/ha; visual grading after ca. 3 weeks
ZEAMX [21] = experiment: Pre-emergence effects on crop plants (Table D1); type: in vivo, Zea mays; details: crop plant; application rate 80 g/ha; visual grading after ca. 3 weeks
TRZAS [22] = experiment: Pre-emergence effects on crop plants (Table D2); type: in vivo, Triticum aestivum; details: crop plant; application rate 80 g/ha; visual grading after ca. 3 weeks
Description: (§4) Seeds of mono- and dicotyledonous weed plants and crop plants were sown, in plastic or organic planting pots, in sandy loam and covered with soil. The compounds according to the invention, formulated in the form of wettable powders (WP) or as emulsifiable concentrates (EC), were applied to the surface of the covering soil as aqueous suspension or emulsion, with the addition of 0.5% of an additive, at an application rate of 600 1 of water/ha (converted).
(§5) Following treatment, the pots were placed in a greenhouse and kept under optimum growth conditions for the test plants.

GLXMA [23] = experiment: Pre-emergence effects on crop plants (Table D4); type: in vivo, Glycine max; details: crop plant; application rate 320 g/ha; visual grading after ca. 3 weeks
Description: as §4, §5

ABUTH [24] = experiment: Herbicidal post-emergence action, section E (Table E1); type: in vivo, Abutilon theophrasti; details: application rate 320 g/ha; assessed visually after ca. 3 weeks
Description: (§3) 2 to 3 weeks after sowing, the test plants were sprayed in the single-leaf stage.

VERPE [25] = experiment: Herbicidal post-emergence action, section E (Table E9); type: in vivo, Veronica persica; details: application rate 320 g/ha; assessed visually after ca. 3 weeks
Description: as §3

VIOTR [26] = experiment: Herbicidal post-emergence action, section E (Table E10); type: in vivo, Viola tricolor; details: application rate 320 g/ha; assessed visually after ca. 3 weeks
Description: as §3

ZEAMX [27] = experiment: Post-emergence effects on crop plants (Table F1); type: in vivo, Zea mays; details: application rate 320 g/ha, crop plant ZEAMX
Description: as §3

TRZAS [28] = experiment: Post-emergence effects on crop plants (Table F2); type: in vivo, Triticum aestivum; details: application rate 320 g/ha, crop plant TRZAS
Description: as §3

ORYZA [29] = experiment: Post-emergence effects on crop plants (Table F3); type: in vivo, Oryza sativa; details: application rate 320 g/ha, crop plant ORYZA
Description: as §3

GLXMA [30] = experiment: Post-emergence effects on crop plants (Table F4); type: in vivo, Glycine max; details: application rate 320 g/ha, crop plant GLXMA
Description: as §3

ORYZA [31] = experiment: Pre-emergence effects on crop plants (Table D3); details: crop plant; application rate 80 g/ha; visual grading after ca. 3 weeks

O=C1N(Cc2c(F)cccc2F)CCCC12CCN(Cc1c(F)cccc1F)C2=O (racemic) [I-037]
pre-emergence activity against ABUTH (ABUTH [1]): 100%
pre-emergence activity against ECHCG (ECHCG [2]): 100%
pre-emergence activity against LOLRI (LOLRI [3]): 100%
pre-emergence activity against MATIN (MATIN [4]): 90%
pre-emergence activity against SETVI (SETVI [5]): 100%
pre-emergence activity against STEME (STEME): 90%
pre-emergence activity against POAAN (POAAN): 100%
pre-emergence activity against ALOMY (ALOMY [6]): 90%
pre-emergence activity against KCHSC (KCHSC): 90%
pre-emergence activity against VERPE (VERPE [7]): 90%
pre-emergence activity against DIGSA (DIGSA [8]): 100%
post-emergence activity against ABUTH (ABUTH [9]): 90%
post-emergence activity against ECHCG (ECHCG [10]): 90%
post-emergence activity against LOLRI (LOLRI [11]): 90%
post-emergence activity against MATIN (MATIN [12]): 90%
post-emergence activity against SETVI (SETVI [13]): 90%
pre-emergence activity against ALOMY (ALOMY [14]): 100%
pre-emergence activity against DIGSA (DIGSA [15]): 100%
pre-emergence activity against LOLRI (LOLRI [16]): 100%
pre-emergence activity against MATIN (MATIN [17]): 80%
pre-emergence activity against SETVI (SETVI [18]): 100%
pre-emergence activity against VERPE (VERPE [19]): 90%
pre-emergence activity against VIOTR (VIOTR [20]): 90%
pre-emergence activity against ZEAMX (ZEAMX [21]): 0%
pre-emergence activity against TRZAS (TRZAS [22]): 0%
pre-emergence activity against GLXMA (GLXMA [23]): 20%
post-emergence activity against ABUTH (ABUTH [24]): 80%
post-emergence activity against VERPE (VERPE [25]): 80%
post-emergence activity against VIOTR (VIOTR [26]): 80%
post-emergence activity against ZEAMX (ZEAMX [27]): 0%
post-emergence activity against TRZAS (TRZAS [28]): 0%
post-emergence activity against ORYZA (ORYZA [29]): 0%
post-emergence activity against GLXMA (GLXMA [30]): 0%
pre-emergence activity against ORYZA (ORYZA [31]): 0%
